Measurements: article PMC6122585 (Bioconjugate chemistry, 2017)

Assays:
αvβ3 = settings: cited from earlier work
αvβ5 = settings: cited from earlier work
SW480 ITGB6 high cells = test: Long-term cytotoxicity, SW480 ITGB6 high; assay type: cell-based, human; settings: SW480 versus SW480 ITGB6 high, Figure S7

| Substance | αvβ3 integrin targeting (in words) (αvβ3) | αvβ5 integrin targeting (in words) (αvβ5) | effect of ITGB6 transfection on sensitivity (SW480 ITGB6 high cells) |
| --- | --- | --- | --- |
| c(RGDfK) | target αvβ3 and αvβ5 integrins | target αvβ3 and αvβ5 integrins |  |
| cilengitide (RGDFV; chains of the INN, looked up) |  |  | ITGB6 transfection did not impact on the sensitivity |
